From patent US10611750B2, “Tetrahydroquinoline compositions as bet bromodomain inhibitors” (FORMA Therapeutics, Inc., priority 2013, dated 2020) come the findings set out here.

Structures are written as SMILES. Some results are limits rather than exact numbers.

For assay [1], the system named is acute myelocytic leukemia (AML) cell line MV4-11. Description: Oncology cell growth assay (3-day proliferation, CellTiter-Glo). The format is cell-based. The note with it: Homo sapiens, MV4-11, 72 h, MV4-11 cells, 3000 cells/well, compounds listed under IC50 range headings, read-out: MV411 IC50 (gIC50, inhibition of proliferation). Here is the method: The impact of Example compounds on cancer cell proliferation was determined using the acute myelocytic leukemia (AML) cell line MV4-11 (ATCC) in a 3-day proliferation assay. MV4-11 cells were maintained in RPMI 1640 media supplemented with 10% FBS at 37° C. and an atmosphere of 5% CO2. For compound testing, compound dilutions series were prepared in DMSO via a 3-fold serial dilution from 2 mM to 0.001 mM in 384-well white flat bottom plates. The final compound concentrations in the wells were 10, 3.3, 1.1, 0.37, 0.12, 0.041, 0.013 and 0.0045 μM. MV4-11 cells were plated at a density of 3000 cells/well in final volume of 50 μl culture media and incubated for 72 hours. […] Luminescent signal from the CellTiter-Glo assay was read on an EnVision multilabel plate reader (PerkinElmer). Values for the concentration that inhibited cell growth by 50% (gIC50) between the DMSO control and background control (no cells) were determined using IDBS Activity Base software with a four parameter logistic curve fit by the equation y=A+((B−A)/(1+((C/x)^D))), wherein A denotes the bottom plateau of the curve, B denotes the top plateau of the curve, C denotes the x value at the middle of the curve, D denotes the slope factor, x denotes the original known x values, and y denotes the original known y values. Data was fitted using the Levenburg Marquardt algorithm.
In general terms: ATP-based viability assays read luminescence as a measure of living cells.

The target in assay [2] is T1, BRD4 Bromodomain 1 (BRD4 BD1) (Homo sapiens, UniProt O60885).
T1 construct: 44-168 and BRD4 BD2
Description: AlphaScreen binding assay, BRD4 BD1. The note with it: His-tagged BRD4 BD1 50 nM, biotinylated H4 (1-21) K5/8/12/16 tetra-acetylated peptide 50 nM, compounds listed under IC50 range headings. How it is done:
The binding of Example compounds to BRD4 Bromodomain 1 and BRD4 Bromodomain 2 was assessed using 384-well AlphaScreen assay technology. His-epitope tagged BRD4 BD144-168 and BRD4 BD2333-460 were cloned, expressed, and purified to homogeneity. BRD4 BD1 and BRD4 BD2 binding and inhibition was assessed by monitoring the engagement of biotinylated Histone H4 (1-21) K5/8/12/16 tetra-acetylated peptide with the targets using the AlphaScreen technology (PerkinElmer). Specifically, in a 384-well black or white flat bottom plate, BRD4 BD1 (50 nM final) or BRD4 BD2 (100 nM final) was combined with peptide (50 nM final for BD1 or 100 nM final for BD2) in 50 mM HEPES (pH 7.3), 100 mM NaCl, 0.1% (w/v) BSA, and 0.01% (w/v) Triton X-100 either in the presence of DMSO (final 1.25% DMSO) or compound dilution series in DMSO. Alpha streptavidin donor beads and Nickel-chelate acceptor beads were added to a final concentration of 10 μg/ml each. After a minimum of 1 hour equilibration, plates were read on a BMG PHERAstar FS multi-label reader (BMG LabTech). The half maximal inhibitory concentration (IC50) values were calculated using IDBS Activity Base software with a four parameter logistic curve fit by the equation y=A+((B−A)/(1+((C/x)^D))), wherein A denotes the bottom plateau of the curve, B denotes the top plateau of the curve, C denotes the x value at the middle of the curve, D denotes the slope factor, x denotes the original known x values, and y denotes the original known y values. Data was fitted using the Levenburg Marquardt algorithm.
(In general: Bead proximity is the source of the signal in Alpha formats.)

As to `C[C@H]1CCc2c(ccc(-c3cn[nH]c3)c2OC2CCC2)N1C(=O)C1CC1` [I-54, (S)-(5-cyclobutoxy-2-methyl-6-(1H-pyrazol-4-yl)-3,4-dihydroquinolin-1 (2H)-yl)(cyclopropyl)methanone], the IC50 in assay [1] was less than 500 nM; in assay [2], 100 to 1000 nM.
For `C[C@H]1CCc2c(ccc(-c3cnn(C)c3)c2OC2CCC2)N1C(=O)C1CC1` [I-55, (S)-(5-cyclobutoxy-2-methyl-6-(1-methyl-1H-pyrazol-4-yl)-3,4-dihydroquinolin-1 (2H)-yl)(cyclopropyl)methanone], the IC50 in assay [1] was less than 500 nM; in assay [2], 100 to 1000 nM.
Regarding `C[C@H]1CCc2c(ccc(-c3ccn[nH]3)c2OC2CCC2)N1C(=O)C1CC1` [I-56, (S)-(5-cyclobutoxy-2-methyl-6-(1H-pyrazol-5-yl)-3,4-dihydroquinolin-1(2H)-yl)(cyclopropyl)methanone], the IC50 in assay [1] fell in the range of 500 to 1000 nM; in assay [2] it was 1000 to 10000 nM.
As to `C[C@H]1CCc2c(ccc(-c3cn(C)cn3)c2OC2CCC2)N1C(=O)C1CC1` [I-57, (S)-(5-cyclobutoxy-2-methyl-6-(1-methyl-1H-imidazol-4-yl)-3,4-dihydroquinolin-1(2H)-yl)(cyclopropyl)methanone], the IC50 is less than 500 nM in assay [1] and 100 to 1000 nM in assay [2].
Taken in the same sequence, the figures for `C[C@H]1CCc2c(OC3CCC3)c(-c3cnn(C4CC4)c3)cc(F)c2N1C(=O)C1CC1` [I-69, (S)-(5-cyclobutoxy-6-(1-cyclopropyl-1H-pyrazol-4-yl)-8-fluoro-2-methyl-3,4-dihydroquinolin-1(2H)-yl)(cyclopropyl)methanone] were 500 to 1000 nM and 1000 to 10000 nM.
In the same order, the values of `C[C@H]1CCc2c(OC3CCC3)c(-c3cn[nH]c3)cc(F)c2N1C(=O)C1CC1` [I-70, (S)-(5-cyclobutoxy-8-fluoro-2-methyl-6-(1H-pyrazol-4-yl)-3,4-dihydroquinolin-1(2H)-yl)(cyclopropyl)methanone] are 500 to 1000 nM and 1000 to 10000 nM.
In the same order, the values of `COC(=O)N1c2c(F)cc(-c3cnn(C4CC4)c3)c(OC3CCC3)c2CC[C@@H]1C` [I-71, (S)-methyl 5-cyclobutoxy-6-(1-cyclopropyl-1H-pyrazol-4-yl)-8-fluoro-2-methyl-3,4-dihydroquinoline-1(2H)-carboxylate] are 500 to 1000 nM and 100 to 1000 nM.
Regarding `COC(=O)N1c2c(F)cc(-c3cn[nH]c3)c(OC3CCC3)c2CC[C@@H]1C` [I-72, (S)-methyl 5-cyclobutoxy-8-fluoro-2-methyl-6-(1H-pyrazol-4-yl)-3,4-dihydroquinoline-1(2H)-carboxylate], the IC50 in assay [1] is less than 500 nM; in assay [2], 100 to 1000 nM.
In the same order, the values of `CC(=O)N1c2c(F)cc(-c3cnn(C4CC4)c3)c(OC3CCC3)c2CC[C@@H]1C` [I-73, (S)-1-(5-cyclobutoxy-6-(1-cyclopropyl-1H-pyrazol-4-yl)-8-fluoro-2-methyl-3,4-dihydroquinolin-1(2H)-yl)ethanone] are 500 to 1000 nM and 100 to 1000 nM.
In the same order, the values of `CC(=O)N1c2c(F)cc(-c3cn[nH]c3)c(OC3CCC3)c2CC[C@@H]1C` [I-74, (S)-1-(5-cyclobutoxy-8-fluoro-2-methyl-6-(1H-pyrazol-4-yl)-3,4-dihydroquinolin-1(2H)-yl)ethanone] are 500 to 1000 nM and 1000 to 10000 nM.
Take `CC(=O)N1c2c(F)c(F)c(-c3cnn(C4CC4)c3)c(OC3CCC3)c2CC[C@@H]1C` [I-75, (S)-1-(5-cyclobutoxy-6-(1-cyclopropyl-1H-pyrazol-4-yl)-7,8-difluoro-2-methyl-3,4-dihydroquinolin-1 (2H)-yl)ethanone]: the figures for the IC50 in assay [1] and in assay [2] were more than 1000 nM and not below 10000 nM, respectively.
In the same order, the values of `C[C@H]1CCc2c(ccc(-c3cnn(C4CCNCC4)c3)c2Oc2cccc(Cl)n2)N1C(=O)C1CC1` [I-94, (S)-(5-(6-chloropyridin-2-yloxy)-2-methyl-6-(1-(piperidin-4-yl)-1H-pyrazol-4-yl)-3,4-dihydroquinolin-1(2H)-yl)(cyclopropyl)methanone] are less than 500 nM and 1000 to 10000 nM.
Taken in the same sequence, the figures for `C[C@H]1CCc2c(ccc(-c3cnn(C4CCNCC4)c3)c2Oc2ccccn2)N1C(=O)C1CC1` [I-95, (S)-cyclopropyl(2-methyl-6-(1-(piperidin-4-yl)-1H-pyrazol-4-yl)-5-(pyridin-2-yloxy)-3,4-dihydroquinolin-1(2H)-yl)methanone] were less than 500 nM and 1000 to 10000 nM.
Taken in the same sequence, the figures for `COC(=O)N1c2ccc(-c3cnn(C4CCNCC4)c3)c(Oc3ccccn3)c2CC[C@@H]1C` [I-96, (S)-methyl 2-methyl-6-(1-(piperidin-4-yl)-1H-pyrazol-4-yl)-5-(pyridin-2-yloxy)-3,4-dihydroquinoline-1(2H)-carboxylate] were less than 500 nM and 100 to 1000 nM.
As to `C[C@H]1CCc2c(ccc(-c3cnn(C4CCNCC4)c3)c2Oc2cccc(F)n2)N1C(=O)C1CC1` [I-97, (S)-cyclopropyl(5-(6-fluoropyridin-2-yloxy)-2-methyl-6-(1-(piperidin-4-yl)-1H-pyrazol-4-yl)-3,4-dihydroquinolin-1(2H)-yl)methanone], the figures for the IC50 in assay [1] and in assay [2] were less than 500 nM and 100 to 1000 nM, respectively.
In the same order, the values of `COc1cccc(Oc2c(-c3cnn(C4CCNCC4)c3)ccc3c2CC[C@H](C)N3C(=O)C2CC2)n1` [I-98, (S)-cyclopropyl(5-(6-methoxypyridin-2-yloxy)-2-methyl-6-(1-(piperidin-4-yl)-1H-pyrazol-4-yl)-3,4-dihydroquinolin-1(2H)-yl)methanone] are less than 500 nM and 100 to 1000 nM.
With `C[C@H]1CCc2c(OC3CCC3)c(-c3cnn(C4CCNCC4)c3)cc(F)c2N1C(=O)C1CC1` [I-103, (S)-(5-cyclobutoxy-8-fluoro-2-methyl-6-(1-(piperidin-4-yl)-1H-pyrazol-4-yl)-3,4-dihydroquinolin-1(2H)-yl)(cyclopropyl)methanone], the IC50 in assay [1] is less than 500 nM; in assay [2], 100 to 1000 nM.
Taken in the same sequence, the figures for `CC(=O)N1c2c(F)cc(-c3cnn(C4CCNCC4)c3)c(OC3CCC3)c2CC[C@@H]1C` [I-105, (S)-1-(5-cyclobutoxy-8-fluoro-2-methyl-6-(1-(piperidin-4-yl)-1H-pyrazol-4-yl)-3,4-dihydroquinolin-1(2H)-yl)ethanone] were less than 500 nM and 100 to 1000 nM.
Regarding `CC(=O)N1c2c(F)c(F)c(-c3cnn(C4CCNCC4)c3)c(OC3CCC3)c2CC[C@@H]1C` [I-106, (S)-1-(5-cyclobutoxy-7,8-difluoro-2-methyl-6-(1-(piperidin-4-yl)-1H-pyrazol-4-yl)-3,4-dihydroquinolin-1 (2H)-yl)ethanone], the IC50 in assay [1] was more than 1000 nM; in assay [2] it was 1000 to 10000 nM.
`COC(=O)N1c2ccc(-c3cnn(C4CC5CNCC5C4)c3)c(OC3CCC3)c2CC[C@@H]1C` (stereo partly drawn) [I-109, (2S)-methyl 5-cyclobutoxy-2-methyl-6-(1-(octahydrocyclopenta[c]pyrrol-5-yl)-1H-pyrazol-4-yl)-3,4-dihydroquinoline-1(2H)-carboxylate]: the IC50 in assay [1] was less than 500 nM; in assay [2], 100 to 1000 nM.
Turning to `COC(=O)N1c2c(F)cc(-c3cnn(C4CCNCC4)c3)c(OC3CCC3)c2CC[C@@H]1C` [I-110, (S)-methyl 5-cyclobutoxy-8-fluoro-2-methyl-6-(1-(piperidin-4-yl)-1H-pyrazol-4-yl)-3,4-dihydroquinoline-1(2H)-carboxylate], the IC50 was less than 500 nM in assay [1] and 100 to 1000 nM in assay [2].
Regarding `C[C@H]1CCc2c(ccc(-c3cnoc3)c2OC2CCC2)N1C(=O)C1CC1` [I-123, (S)-(5-cyclobutoxy-6-(isoxazol-4-yl)-2-methyl-3,4-dihydroquinolin-1(2H)-yl)(cyclopropyl)methanone], the IC50 in assay [1] is more than 1000 nM; in assay [2], 1000 to 10000 nM.
